According to the kinase profiling compilation of Christmann-Franck et al. (2016):

What was measured:
Assay in all cases: KINOMEscan competition binding
Settings in all cases: compound 10.0 µM
[1] = test system: ABL1 (human), P00519 [E255K]
[2] = biological target: BRAF (human) (UniProt P15056)
[3] = biological target: CASK (human) (UniProt O14936)
[4] = biological target: CDK2 (human) (UniProt P24941)
[5] = biological target: CDK4 CCND1 (human) (UniProt P11802+P24385)
[6] = biological target: CDKL1 (human) (UniProt Q00532)
Sequence of CDKL1 (human) (Q00532 whole entry, looked up): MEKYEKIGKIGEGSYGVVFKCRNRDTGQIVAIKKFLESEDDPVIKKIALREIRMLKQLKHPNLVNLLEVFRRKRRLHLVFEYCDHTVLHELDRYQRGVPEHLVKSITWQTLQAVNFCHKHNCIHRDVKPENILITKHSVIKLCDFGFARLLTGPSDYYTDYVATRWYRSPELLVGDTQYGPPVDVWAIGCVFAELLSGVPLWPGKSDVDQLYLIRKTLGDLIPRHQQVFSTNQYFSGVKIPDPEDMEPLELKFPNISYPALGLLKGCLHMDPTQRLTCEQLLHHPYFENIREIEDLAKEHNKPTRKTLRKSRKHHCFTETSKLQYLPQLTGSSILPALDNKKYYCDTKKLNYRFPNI

[7] = biological target: CDKL5 (human) (UniProt O76039)
[8] = test system: CPK1 (P.falciparum)
[9] = biological target: DYRK1A (human) (UniProt Q13627)
[10] = biological target: EPHB6 (human) (UniProt O15197)
[11] = biological target: ERBB3 (human) (UniProt P21860)
Sequence of ERBB3 (human) (P21860 whole entry, looked up): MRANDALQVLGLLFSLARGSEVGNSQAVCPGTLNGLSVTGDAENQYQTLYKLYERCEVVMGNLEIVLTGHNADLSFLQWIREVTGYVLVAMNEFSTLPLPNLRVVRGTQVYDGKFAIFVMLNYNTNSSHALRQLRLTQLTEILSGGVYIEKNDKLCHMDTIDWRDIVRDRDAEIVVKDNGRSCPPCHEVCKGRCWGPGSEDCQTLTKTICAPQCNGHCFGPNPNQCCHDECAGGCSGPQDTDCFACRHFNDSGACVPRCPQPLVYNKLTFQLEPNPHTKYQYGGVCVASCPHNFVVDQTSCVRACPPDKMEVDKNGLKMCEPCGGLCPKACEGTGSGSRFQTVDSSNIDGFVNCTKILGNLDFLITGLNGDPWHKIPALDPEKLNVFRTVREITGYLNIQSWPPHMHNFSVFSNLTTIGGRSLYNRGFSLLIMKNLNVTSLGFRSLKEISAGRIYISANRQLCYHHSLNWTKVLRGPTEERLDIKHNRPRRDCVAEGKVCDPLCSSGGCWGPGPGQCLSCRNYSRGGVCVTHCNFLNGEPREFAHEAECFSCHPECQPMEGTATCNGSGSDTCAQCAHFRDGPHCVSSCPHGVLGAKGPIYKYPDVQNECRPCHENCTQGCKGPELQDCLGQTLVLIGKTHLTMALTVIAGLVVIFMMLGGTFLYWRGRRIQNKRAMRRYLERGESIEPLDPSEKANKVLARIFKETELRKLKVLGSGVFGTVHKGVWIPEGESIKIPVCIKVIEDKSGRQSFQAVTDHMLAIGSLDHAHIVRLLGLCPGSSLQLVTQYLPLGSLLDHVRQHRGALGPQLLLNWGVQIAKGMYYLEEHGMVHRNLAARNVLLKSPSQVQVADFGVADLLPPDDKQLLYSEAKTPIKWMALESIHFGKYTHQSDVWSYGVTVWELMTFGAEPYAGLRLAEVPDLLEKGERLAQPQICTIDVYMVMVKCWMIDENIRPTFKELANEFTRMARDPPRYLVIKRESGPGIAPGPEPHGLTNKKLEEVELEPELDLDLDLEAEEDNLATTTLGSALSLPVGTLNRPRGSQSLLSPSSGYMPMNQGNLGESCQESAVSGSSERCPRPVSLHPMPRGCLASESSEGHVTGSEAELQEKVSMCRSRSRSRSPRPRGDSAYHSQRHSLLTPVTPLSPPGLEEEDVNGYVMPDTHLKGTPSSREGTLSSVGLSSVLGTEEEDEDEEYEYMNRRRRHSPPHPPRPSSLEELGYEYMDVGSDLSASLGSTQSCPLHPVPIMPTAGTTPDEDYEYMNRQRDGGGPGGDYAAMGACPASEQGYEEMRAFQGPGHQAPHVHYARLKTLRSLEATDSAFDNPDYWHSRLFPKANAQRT

[12] = biological target: GRK4 (human) (UniProt P32298)
[13] = biological target: HIPK2 (human) (UniProt Q9H2X6)
[14] = biological target: HIPK4 (human) (UniProt Q8NE63)
Sequence of HIPK4 (human) (Q8NE63 whole entry, looked up): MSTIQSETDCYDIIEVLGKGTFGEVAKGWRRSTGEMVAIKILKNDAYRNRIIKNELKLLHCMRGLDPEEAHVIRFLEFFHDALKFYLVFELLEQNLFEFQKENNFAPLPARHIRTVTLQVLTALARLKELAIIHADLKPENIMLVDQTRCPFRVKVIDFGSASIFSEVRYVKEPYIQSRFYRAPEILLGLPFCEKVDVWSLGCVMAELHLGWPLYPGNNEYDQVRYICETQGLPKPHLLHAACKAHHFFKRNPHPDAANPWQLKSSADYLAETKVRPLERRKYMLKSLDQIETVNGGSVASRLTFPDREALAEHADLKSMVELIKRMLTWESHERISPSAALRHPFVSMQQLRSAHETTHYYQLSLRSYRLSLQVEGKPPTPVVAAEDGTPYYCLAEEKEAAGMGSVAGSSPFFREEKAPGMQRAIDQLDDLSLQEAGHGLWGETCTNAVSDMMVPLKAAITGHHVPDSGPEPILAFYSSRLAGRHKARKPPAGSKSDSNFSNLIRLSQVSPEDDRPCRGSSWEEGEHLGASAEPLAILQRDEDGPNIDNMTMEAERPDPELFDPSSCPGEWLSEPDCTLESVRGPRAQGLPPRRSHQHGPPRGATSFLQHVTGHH

[15] = biological target: HUNK (human) (UniProt P57058)
Sequence of HUNK (human) (P57058 whole entry, looked up): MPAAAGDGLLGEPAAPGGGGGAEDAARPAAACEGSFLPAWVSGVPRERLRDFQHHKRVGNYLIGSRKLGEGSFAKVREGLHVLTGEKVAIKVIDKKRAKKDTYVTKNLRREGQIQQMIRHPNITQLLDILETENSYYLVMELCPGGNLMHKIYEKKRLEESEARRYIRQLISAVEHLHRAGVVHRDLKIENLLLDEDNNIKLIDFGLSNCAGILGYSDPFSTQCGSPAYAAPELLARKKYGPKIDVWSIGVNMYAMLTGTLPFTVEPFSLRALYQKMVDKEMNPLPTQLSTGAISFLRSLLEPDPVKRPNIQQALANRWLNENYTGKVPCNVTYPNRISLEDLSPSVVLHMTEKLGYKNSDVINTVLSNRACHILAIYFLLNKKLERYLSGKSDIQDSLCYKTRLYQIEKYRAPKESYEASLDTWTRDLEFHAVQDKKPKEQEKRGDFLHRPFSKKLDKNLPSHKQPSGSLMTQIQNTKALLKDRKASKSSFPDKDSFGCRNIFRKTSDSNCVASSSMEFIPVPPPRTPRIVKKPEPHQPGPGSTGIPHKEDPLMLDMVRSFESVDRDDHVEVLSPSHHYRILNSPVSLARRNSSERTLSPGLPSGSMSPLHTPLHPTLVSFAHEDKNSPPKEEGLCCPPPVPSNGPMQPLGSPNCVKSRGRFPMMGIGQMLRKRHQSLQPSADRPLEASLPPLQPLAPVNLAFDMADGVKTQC

[16] = biological target: ICK (human) (UniProt Q9UPZ9)
[17] = biological target: IRAK1 (human) (UniProt P51617)
[18] = biological target: IRAK4 (human) (UniProt Q9NWZ3)
[19] = biological target: KIT (human) (UniProt P10721)
Sequence of KIT (human) (P10721 whole entry, looked up): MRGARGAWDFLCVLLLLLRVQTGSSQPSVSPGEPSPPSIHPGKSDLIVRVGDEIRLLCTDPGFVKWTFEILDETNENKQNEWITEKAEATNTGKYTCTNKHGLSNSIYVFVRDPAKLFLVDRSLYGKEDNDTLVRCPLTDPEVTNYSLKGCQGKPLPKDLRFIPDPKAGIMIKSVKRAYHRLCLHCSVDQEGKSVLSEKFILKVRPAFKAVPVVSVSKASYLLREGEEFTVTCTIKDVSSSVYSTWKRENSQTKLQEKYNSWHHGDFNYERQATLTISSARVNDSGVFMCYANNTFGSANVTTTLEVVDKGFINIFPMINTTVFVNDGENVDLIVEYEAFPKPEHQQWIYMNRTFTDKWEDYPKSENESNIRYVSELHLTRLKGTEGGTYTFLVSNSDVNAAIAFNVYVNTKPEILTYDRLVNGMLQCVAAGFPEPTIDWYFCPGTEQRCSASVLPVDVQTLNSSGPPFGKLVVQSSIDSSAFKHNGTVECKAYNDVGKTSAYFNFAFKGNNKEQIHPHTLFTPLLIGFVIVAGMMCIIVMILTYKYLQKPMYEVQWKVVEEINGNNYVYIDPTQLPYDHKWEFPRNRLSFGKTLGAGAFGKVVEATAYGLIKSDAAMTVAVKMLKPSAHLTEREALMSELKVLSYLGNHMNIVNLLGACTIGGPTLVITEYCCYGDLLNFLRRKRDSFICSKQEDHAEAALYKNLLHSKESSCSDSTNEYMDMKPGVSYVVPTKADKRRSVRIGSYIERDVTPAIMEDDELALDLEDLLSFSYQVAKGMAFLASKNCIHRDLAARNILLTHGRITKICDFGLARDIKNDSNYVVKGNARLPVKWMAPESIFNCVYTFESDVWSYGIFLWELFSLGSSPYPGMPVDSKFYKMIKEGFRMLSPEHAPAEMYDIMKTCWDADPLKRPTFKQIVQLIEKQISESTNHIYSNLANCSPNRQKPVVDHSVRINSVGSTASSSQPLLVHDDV

[20] = biological target: MAP2K5 (human) (UniProt Q13163)
[21] = biological target: MAP3K13 (human) (UniProt O43283)
[22] = biological target: MAST1 (human) (UniProt Q9Y2H9)
[23] = biological target: MET (human) (UniProt P08581)
[24] = biological target: MYLK3 (human) (UniProt Q32MK0)
[25] = biological target: NEK3 (human) (UniProt P51956)
Sequence of NEK3 (human) (P51956 whole entry, looked up): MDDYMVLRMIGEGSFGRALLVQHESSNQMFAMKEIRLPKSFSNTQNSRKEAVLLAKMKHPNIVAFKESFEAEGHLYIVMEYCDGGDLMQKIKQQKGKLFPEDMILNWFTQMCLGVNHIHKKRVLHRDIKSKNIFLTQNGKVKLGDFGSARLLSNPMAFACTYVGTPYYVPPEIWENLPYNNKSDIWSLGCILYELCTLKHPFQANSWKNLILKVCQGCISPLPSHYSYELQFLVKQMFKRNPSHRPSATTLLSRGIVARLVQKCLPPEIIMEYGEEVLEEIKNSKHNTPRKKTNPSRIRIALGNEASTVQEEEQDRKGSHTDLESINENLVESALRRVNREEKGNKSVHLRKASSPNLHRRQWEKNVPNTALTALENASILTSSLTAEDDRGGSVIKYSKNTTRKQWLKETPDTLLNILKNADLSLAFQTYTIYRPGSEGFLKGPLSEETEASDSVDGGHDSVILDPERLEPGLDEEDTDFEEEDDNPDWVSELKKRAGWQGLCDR

[26] = biological target: NIM1 (human) (UniProt Q8IY84)
[27] = biological target: PRKCI (human) (UniProt P41743)
[28] = biological target: ROCK1 (human) (UniProt Q13464)
[29] = biological target: RPS6KB1 (human) (UniProt P23443)
[30] = biological target: SBK1 (human) (UniProt Q52WX2)
[31] = biological target: SGK3 (human) (UniProt Q96BR1)
[32] = biological target: TAOK2 (human) (UniProt Q9UL54)
[33] = biological target: VRK2 (human) (UniProt Q86Y07)
Sequence of VRK2 (human) (Q86Y07 whole entry, looked up): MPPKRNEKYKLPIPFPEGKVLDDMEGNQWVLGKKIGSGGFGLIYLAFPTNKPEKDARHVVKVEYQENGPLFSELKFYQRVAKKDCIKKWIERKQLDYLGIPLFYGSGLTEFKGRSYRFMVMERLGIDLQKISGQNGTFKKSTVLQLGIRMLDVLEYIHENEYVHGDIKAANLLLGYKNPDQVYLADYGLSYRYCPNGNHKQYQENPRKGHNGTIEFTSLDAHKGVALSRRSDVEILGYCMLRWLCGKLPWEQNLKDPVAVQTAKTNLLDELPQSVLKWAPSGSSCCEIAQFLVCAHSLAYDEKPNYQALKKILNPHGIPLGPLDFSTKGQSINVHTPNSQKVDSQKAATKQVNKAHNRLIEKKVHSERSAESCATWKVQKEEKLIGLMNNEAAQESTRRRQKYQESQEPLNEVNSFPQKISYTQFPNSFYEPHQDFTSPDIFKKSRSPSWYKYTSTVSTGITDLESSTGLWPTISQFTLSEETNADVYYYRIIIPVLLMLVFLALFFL

[34] = biological target: MTOR (human) (UniProt P42345)
[35] = biological target: PI4KB (human) (UniProt Q9UBF8)
[36] = test system: PIK3CA (human), P42336 [C420R]
[37] = test system: PIK3CA (human), P42336 [E545A]
[38] = test system: PIK3CA (human), P42336 [E545K]
[39] = test system: PIK3CA (human), P42336 [H1047Y]
[40] = biological target: PIK3CG (human) (UniProt P48736)

SMILES | kinase still bound, per cent of control [2] [%] | kinase still bound, per cent of control [3] [%] | kinase still bound, per cent of control [6] [%] | kinase still bound, per cent of control [7] [%] | kinase still bound, per cent of control [9] [%] | kinase still bound, per cent of control [10] [%] | kinase still bound, per cent of control [11] [%] | kinase still bound, per cent of control [12] [%] | kinase still bound, per cent of control [13] [%] | kinase still bound, per cent of control [15] [%] | kinase still bound, per cent of control [16] [%] | kinase still bound, per cent of control [17] [%] | kinase still bound, per cent of control [18] [%] | kinase still bound, per cent of control [19] [%] | kinase still bound, per cent of control [20] [%] | kinase still bound, per cent of control [21] [%] | kinase still bound, per cent of control [22] [%] | kinase still bound, per cent of control [23] [%] | kinase still bound, per cent of control [26] [%] | kinase still bound, per cent of control [28] [%] | other results
Nc1ccc(-c2ccc3ncc4ccc(=O)n(-c5cccc(C(F)(F)F)c5)c4c3c2)cn1 | 73 | 67 | 97 | 100 | 75 | 82 | 50 | 92 | 53 | 100 | 79 | 84 | 85 | 55 | 84 | 100 | 100 | 100 | 100 | 79 | kinase still bound, per cent of control [1]: 76%; kinase still bound, per cent of control [4]: 67%; kinase still bound, per cent of control [5]: 100%; kinase still bound, per cent of control [8]: 52%; kinase still bound, per cent of control [14]: 44%; kinase still bound, per cent of control [24]: 100%; kinase still bound, per cent of control [25]: 95%; kinase still bound, per cent of control [27]: 100%; kinase still bound, per cent of control [29]: 86%; kinase still bound, per cent of control [30]: 100%; kinase still bound, per cent of control [31]: 100%; kinase still bound, per cent of control [32]: 92%; kinase still bound, per cent of control [33]: 100%
COc1cc(N2CCN(C)CC2)ccc1Nc1nc(N)c(C(=O)c2c(Cl)cccc2Cl)s1 | 94 | 35 | 88 | 100 | 72 | 63 | 50 | 85 | 66 | 100 | 7.4 | 92 | 96 | 100 | 100 | 100 | 24 | 100 | 80 | 79 | kinase still bound, per cent of control [1]: 90%; kinase still bound, per cent of control [4]: 79%; kinase still bound, per cent of control [14]: 24%; kinase still bound, per cent of control [34]: 100%; kinase still bound, per cent of control [24]: 100%; kinase still bound, per cent of control [25]: 89%; kinase still bound, per cent of control [35]: 100%; kinase still bound, per cent of control [36]: 100%; kinase still bound, per cent of control [37]: 100%; kinase still bound, per cent of control [38]: 100%; kinase still bound, per cent of control [39]: 100%; kinase still bound, per cent of control [40]: 86%; kinase still bound, per cent of control [27]: 93%; kinase still bound, per cent of control [29]: 89%; kinase still bound, per cent of control [30]: 80%; kinase still bound, per cent of control [31]: 100%; kinase still bound, per cent of control [32]: 8.2%; kinase still bound, per cent of control [33]: 100%
CCCS(=O)(=O)Nc1ccc(F)c(C(=O)c2c[nH]c3ncc(-c4ccc(Cl)cc4)cc23)c1F | 0 | 80 | 100 | 100 | 100 | 5.8 | 73 | 100 | 66 | 9.1 | 73 | 99 | 86 | 0.15 | 0.15 | 100 | 100 | 53 | 100 | 85 | kinase still bound, per cent of control [5]: 52%; kinase still bound, per cent of control [8]: 0%; kinase still bound, per cent of control [34]: 100%; kinase still bound, per cent of control [35]: 0.7%; kinase still bound, per cent of control [36]: 100%; kinase still bound, per cent of control [37]: 95%; kinase still bound, per cent of control [38]: 100%; kinase still bound, per cent of control [39]: 88%; kinase still bound, per cent of control [40]: 19%; kinase still bound, per cent of control [27]: 100%; kinase still bound, per cent of control [29]: 86%; kinase still bound, per cent of control [30]: 92%; kinase still bound, per cent of control [31]: 71%; kinase still bound, per cent of control [32]: 53%; kinase still bound, per cent of control [33]: 100%
C[C@@H](Oc1cc(-n2cnc3ccc(CN4CCN(C)CC4)cc32)sc1C(N)=O)c1ccccc1C(F)(F)F | 79 | 50 | 75 | 31 | 100 | 59 | 100 | 16 | 36 | 78 | 85 | 23 | 43 | 47 | 43 | 87 | 3.1 | 76 | 30 | 7.9 | kinase still bound, per cent of control [1]: 55%; kinase still bound, per cent of control [4]: 85%; kinase still bound, per cent of control [5]: 91%; kinase still bound, per cent of control [8]: 62%; kinase still bound, per cent of control [14]: 36%; kinase still bound, per cent of control [34]: 55%; kinase still bound, per cent of control [24]: 100%; kinase still bound, per cent of control [25]: 100%; kinase still bound, per cent of control [35]: 100%; kinase still bound, per cent of control [36]: 55%; kinase still bound, per cent of control [37]: 40%; kinase still bound, per cent of control [38]: 71%; kinase still bound, per cent of control [39]: 32%; kinase still bound, per cent of control [40]: 6.4%; kinase still bound, per cent of control [29]: 52%; kinase still bound, per cent of control [30]: 55%; kinase still bound, per cent of control [31]: 28%; kinase still bound, per cent of control [32]: 94%; kinase still bound, per cent of control [33]: 100%
